{
  "source": "patent US7256180B2",
  "about": "(priority 2000, dated 2007)",
  "key": {"HSV-1 (strain CI)": {"system": "HSV-1 (strain CI)", "format": "in vivo, mice"}, "HSV-1 virus (strain L2)": {"system": "HSV-1 virus (strain L2)", "format": "cell-based, Herpes Simplex Virus 1", "conditions": "Vero cells, 24 hours"}, "HSV-1": {"system": "HSV-1", "format": "cell-based, Herpes Simplex Virus 1", "conditions": "BHK cells, oligonucleotide 3.0 μM"}},
  "note": "Like-named read-outs stand apart in the source and are kept apart here. {C11P} = undecylphosphate group; {Acr} = acridine group",
  "data": [
    {"substance": "Free Anti-Influenza: AGCAAAAGCAGG, equivalently modified control (5' {C11P}, 3' {Acr}, sugars by position and backbone not given here)", "values": [
      {"measurement": "Animals Survived/No. of Animals in group, Exp. 1", "setting": "HSV-1 (strain CI); mouse, in vivo, iv", "result": "0/9"},
      {"measurement": "Animals Survived/No. of Animals in group, Exp. 2", "setting": "HSV-1 (strain CI); mouse, in vivo, iv", "result": "1/10"},
      {"measurement": "Animals Survived/No. of Animals in group, Exp. 3", "setting": "HSV-1 (strain CI); mouse, in vivo, iv", "result": "0/10"},
      {"measurement": "% Survival", "setting": "HSV-1 (strain CI); over Exp. 1-3", "result": 7.0, "unit": "%"},
      {"measurement": "HSV-1 Infectious Titre (CPE50/ml) (n = 7)", "setting": "HSV-1 virus (strain L2); oligo conc. 0.2 μM", "result": "1.1 (±0.4) × 10^6 CPE50/ml"},
      {"measurement": "HSV-1 Infectious Titre (CPE50/ml) (n = 7)", "setting": "HSV-1 virus (strain L2); oligo conc. 1.0 μM", "result": "0.9 (±0.2) × 10^6 CPE50/ml"},
      {"measurement": "HSV-1 Infectious Titre (CPE50/ml) (n = 7)", "setting": "HSV-1 virus (strain L2); oligo conc. 5.0 μM", "result": "0.6 (±0.3) × 10^6 CPE50/ml"},
      {"measurement": "HSV-1 Infectious Titre (CPE50/ml) (n = 7)", "setting": "HSV-1", "result": "9 (±2) × 10^3 CPE50/ml"}
    ]}
  ]
}
